Here are results for one compound from BindingDB's records for doi:10.1016/j.ejmech.2023.115347 (Johann Wolfgang Goethe University, 2023).

pIC50: −log10 of the molar value. Some results are limits rather than exact numbers.

For this test, the target named is Ribosomal protein S6 kinase alpha-1 (Homo sapiens) (UniProt Q15418). The test is described as follows: Inhibition of full length NanoLuc fused RSK1b (unknown origin) transfected in HEK293T cells using NanoBRET NanoGlo substrate incubated for 2 hrs in presence of tracer by NanoBRET assay.
Ribosomal protein S6 kinase alpha-1 (Homo sapiens), sequence (Q15418 whole entry, looked up, the tested form may be a part): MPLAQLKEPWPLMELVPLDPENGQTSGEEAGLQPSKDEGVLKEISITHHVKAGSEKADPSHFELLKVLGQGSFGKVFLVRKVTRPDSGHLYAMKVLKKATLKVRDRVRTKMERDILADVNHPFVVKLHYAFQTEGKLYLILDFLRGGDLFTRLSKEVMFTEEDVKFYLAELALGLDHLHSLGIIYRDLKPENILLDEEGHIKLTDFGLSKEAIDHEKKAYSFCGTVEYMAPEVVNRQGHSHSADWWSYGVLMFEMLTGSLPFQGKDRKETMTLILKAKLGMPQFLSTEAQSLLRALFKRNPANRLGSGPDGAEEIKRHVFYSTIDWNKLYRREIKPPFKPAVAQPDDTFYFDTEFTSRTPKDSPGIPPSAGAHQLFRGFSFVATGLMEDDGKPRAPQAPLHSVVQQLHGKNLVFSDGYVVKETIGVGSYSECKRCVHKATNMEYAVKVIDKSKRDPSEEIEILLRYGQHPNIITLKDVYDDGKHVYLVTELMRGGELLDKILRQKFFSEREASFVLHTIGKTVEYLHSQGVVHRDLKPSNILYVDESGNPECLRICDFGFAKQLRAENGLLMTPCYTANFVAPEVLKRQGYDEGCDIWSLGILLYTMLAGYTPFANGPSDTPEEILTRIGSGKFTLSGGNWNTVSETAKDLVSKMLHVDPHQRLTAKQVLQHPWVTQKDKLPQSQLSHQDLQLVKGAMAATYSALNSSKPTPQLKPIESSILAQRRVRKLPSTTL

As for `CNc1ncc2cc(-c3cc(F)ccc3F)c(=O)n(CCCCN)c2n1`, the pIC50 (as a rule, the negative decadic logarithm of the IC50, by convention in mol/L) is < 4.35.
